What was measured:
Type in all cases: cell-based, murine
Malat1 mRNA = Malat1 mRNA knockdown in Neuro-2a cells (qRT-PCR); details: for enhancing effect on Malat1 mRNA reduction in co-administration: named molecule titrated with fixed 200 nM Malat1 ASO; for Malat1 RNA still measurable: 20.000 nM Malat1 ASO alone or co-administered with 1 μM of the named molecule; for co-administration enhancement effect on Malat1 ASO efficacy: named molecule at 1 μM with titrated Malat1 ASO
Description: Neuro-2a (murine neuroblastoma cells) were cultured in DMEM (PAN-Biotech GmbH) supplemented with 10% fetal bovine serum (FBS, PAN-Biotech GmbH) and Pen/Strep (PAN-Biotech GmbH). For experiments, Neuro-2a cells were harvested, resuspended at 60.000 cells/mL and seeded at a density of 36.000 cells/well or 6.000 cells/well for the 24- or 96-well plates (Greiner BioOne). Cells were incubated overnight at 37° C. Before the start of treatment, 210 µL or 35 μL medium was added per well, respectively, followed by the conjugates from a 10× concentrated stock solution in DPBS (PAN-Biotech GmbH). Plates were incubated for 72 hr at 37° C. before the cells of the 24-well plates were harvested for gene expression analysis and the cell viability was assessed on the 96-well plates.
(§1) Total RNA from cells was isolated using TRIzol™ Reagent (Thermo Scientific) according to the manufacturer's instruction. Conversion into cDNA was performed using iScript™ cDNA Synthesis Kit (BioRad) using standard protocols. Gene expression levels of the gene of interest (GOI) and levels of specific housekeeping genes were determined using quantitative real-time PCR assays (qRT-PCR) using iTaq™ Universal SYBR® Green Supermix (BioRad) and the Light Cycler 480 II (Roche Diagnostics) with specific DNA primers, listed in Table A3. Each analysis reaction was performed in triplicate. Analysis was done by the ΔCt method to determine GOI expression relative to 2 specific housekeeping control mRNAs. Results are expressed as % relative GOI expression levels after normalization to DPBS treated control cells.
(§2) Neuro-2a cells (murine neuroblastoma cell line) were cultured in DMEM (PAN-Biotech GmbH) supplemented with 10% fetal bovine serum (FBS, PAN-Biotech GmbH) and Pen/Strep (PAN-Biotech GmbH). For experiments, Neuro-2a cells were harvested, resuspended at 60.000 cells/mL and seeded at a density of 36.000 cells/well or 6.000 cells/well for the 24 or 96-well plates (Greiner BioOne). Cells were incubated overnight at 37° C. Before the start of treatment, either 210 μL or 35 μL media was added per well resp., followed by the compounds from a 10× concentrated stock solution in DPBS (PAN-Biotech GmbH). In the control wells, or when only one compound was applied in treatment, additional DPBS was added so that the final volume per well was 900 µL or 150 μL for the 24 or 96-well plates (wp), respectively. Plates were incubated for 72 hr at 37° C. before the cells of the 24 wp were harvested for gene expression analysis or exon skip/aberrant transcript analysis and the cell viability was assessed on the 96 wp.
as §1, with “LightCycler” for “Light Cycler”, “A6.” for “A3.”

Sod1 transcript = test: Remaining full length Sod1 transcript in Neuro-2a cells (qRT-PCR); details: PMO without saponin component
Description: as §2, with “In the control wells, or when only one compound was applied in treatment, additional DPBS was added so that the final volume per well was 900 µL or 150 μL for the 24 or 96-well plates (wp), respectively.” left out
Total RNA from cells was isolated using TRIzol™ Reagent (Thermo Scientific) according to the manufacturer's instruction. […] Gene expression levels of the gene of interest (GOI) and levels of specific housekeeping genes were determined using quantitative real-time PCR assays (qRT-PCR) using iTaq™ Universal SYBR® Green Supermix (BioRad) and the LightCycler 480 II (Roche Diagnostics) with specific DNA primers, listed in Table A6. […] Results are expressed as % relative GOI expression levels after normalization to DPBS treated control cells.

Sod1 RNA transcripts = test: Sod1 aberrant transcript / exon skip in Neuro-2a cells (PCR gel analysis)
Description: Neuro-2a (murine neuroblastoma cells) were cultured in DMEM (PAN-Biotech GmbH) supplemented with 10% fetal bovine serum (FBS, PAN-Biotech GmbH) and Pen/Strep (PAN-Biotech GmbH). For experiments Neuro-2a cells were harvested, resuspended at 70.000 cells/mL and seeded at a density of 42.000 cells/well or 7.000 cells/well for the 24 or 96-well plates (Greiner BioOne). Cells were incubated overnight at 37° C. Before the start of treatment 120 μL or 20 μL media was added per well resp., followed by both saponin and/or PMO from a 10× concentrated stock solution in DPBS (PAN-Biotech GmbH). […] Plates were incubated for 72 hr at 37° C. before the cells of the 24 wp were harvested for gene expression analysis and the cell viability was assessed on the 96 wp.
Total RNA from cells was isolated using TRIzol™ Reagent (Thermo Scientific) according to the manufacturer's instruction. […] The gene expression was determined on 50 ng cDNA using the SapphireAmp Fast PCR Master Mix (Takara) with specific DNA primers, listed in Table A4. The PCR product was separated on a 2% agarose gel and fragments were analysed on the ChemiDoc XRS+ (BioRad) using Image Lab software (BioRad). For quantification of the % exon skip, the signal intensity of the aberrant transcript(s) (Mm Sod1 448 bp and 378 bp was divided over the total signal intensity of the skipped fragment(s)+full length fragment (Mm Sod1 545 bp)×100. […]

Row | Compound | enhancing effect on Malat1 mRNA reduction in co-administration (Malat1 mRNA) | Malat1 RNA still measurable (Malat1 mRNA; 4320 min) | co-administration enhancement effect on Malat1 ASO efficacy (Malat1 mRNA) | further results
1 | CC(=O)OC1C(C)OC(OC2C(C)OC(OC(=O)[C@]34CCC(C)(C)CC3C3=CCC5[C@@]6(C)CC[C@H](OC7OC(C(=O)O)C(O)C(OC8OCC(O)C(O)C8O)C7OC7OC(CO)C(O)C(O)C7O)[C@@](C)(/C=N/NC(=O)CCCCCN7C(=O)CC(SCCO)C7=O)C6CC[C@@]5(C)[C@]3(C)C[C@H]4O)C(OC3OC(C)C(OC4OCC(O)C(OC5OC(CO)C(O)C(O)C5O)C4O)C(O)C3O)C2O)C(O)C1OC1OCC(O)C(O)C1O (stereo partly drawn) [SO1861-AH-Block] | efficacious |  |  | concentration above which complete loss of Malat1 mRNA expression is achieved (Malat1 mRNA; titrated with fixed 200 nM Malat1 ASO): above 3200 nM
2 | C[C@@H]1CC[C@@]2(OC1)O[C@H]1[C@@H](O)[C@H]3[C@@H]4CC[C@H]5C[C@@H](O[C@@H]6O[C@H](CO)[C@H](O[C@@H]7O[C@H](CO)[C@@H](O)[C@H](O[C@@H]8OC[C@@H](O)[C@H](O)[C@H]8O)[C@H]7O[C@@H]7O[C@H](CO)[C@H](O)[C@H](O[C@@H]8O[C@H](CO)[C@@H](O)[C@H](O)[C@H]8O)[C@H]7O)[C@H](O)[C@H]6O)[C@H](O)C[C@]5(C)[C@H]4CC[C@]3(C)[C@H]1[C@@H]2C [digitonin] |  | 10-15% | not observed | reduction in Malat1 mRNA (Malat1 mRNA; 10.000 nM of named molecule with 200 nM Malat1 ASO, 4320 min): approximately 70%
3 | C[C@H]1O[C@@H](O[C@H]2[C@@H](O)C[C@H](O[C@H]3[C@@H](O)C[C@H](O[C@H]4CC[C@@]5(C)[C@H](CC[C@@H]6[C@@H]5C[C@@H](O)[C@]5(C)[C@@H](C7=CC(=O)OC7)CC[C@]65O)C4)O[C@@H]3C)O[C@@H]2C)C[C@H](O)[C@@H]1O [digoxin] | no enhancing effect | 10-15% | not observed | 
4 | CC1(C)[C@@H](O[C@H]2O[C@H](C(=O)O)[C@@H](O)[C@H](O)[C@H]2O[C@@H]2O[C@H](C(=O)O)[C@@H](O)[C@H](O)[C@H]2O)CC[C@]2(C)[C@H]3C(=O)C=C4[C@@H]5C[C@@](C)(C(=O)O)CC[C@]5(C)CC[C@@]4(C)[C@]3(C)CC[C@@H]12 [glycyrrhizin] | no enhancing effect |  |  | 
5 | C[C@H]1CC[C@]2(NC1)O[C@H]1C[C@H]3[C@@H]4CC[C@H]5C[C@@H](O[C@@H]6O[C@H](CO)[C@H](O[C@@H]7O[C@H](CO)[C@@H](O)[C@H](O[C@@H]8OC[C@@H](O)[C@H](O)[C@H]8O)[C@H]7O[C@@H]7O[C@H](CO)[C@@H](O)[C@H](O)[C@H]7O)[C@H](O)[C@H]6O)CC[C@]5(C)[C@H]4CC[C@]3(C)[C@H]1[C@@H]2C [tomatine] | no enhancing effect | 10-15% | not observed | 
6 | SOD1 PMO: PMO targeting murine Sod1, SEQ ID: 20, GCCAGCCTAGGACCTACCTTGTGTA (all phosphorodiamidate morpholino (PMO)) |  |  |  | reduction of full length Sod1 transcript (Sod1 transcript): not able to reduce transcript; induction of aberrant Sod1 transcripts (Sod1 RNA transcripts; PMO alone, up to 50 μM PMO (FIG. 4)): did not induce any aberrant Sod1 transcripts; activity (aberrant transcript induction, nonsense mediated mRNA decay) (Sod1 RNA transcripts; without saponin component (FIG. 18C, 18D)): did not show any activity at any of the concentrations tested

Source: patent US20260284202A1, “CONJUGATES OF SAPONIN AND ANTISENSE OLIGONUCLEOTIDES FOR USE IN THE TREATMENT OF NEURODEGENERATIVE DISEASES” (priority 2023, published 2026)
